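Step 1: Grow cells in 96-well plates. Step 2: Expose to compound for 48 hours at 5 concentrations. Step 3: Interpolate endpoints linearly; if unreached, use highest concentration. At the GI50, growth is halved. TGI marks complete inhibition of growth.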
Legend:
Test in all cases: DTP human tumour cell line panel, 48 h
[1] = system: RXF 393 renal
[2] = system: SR leukemia
[3] = system: HL-60(TB) leukemia
[4] = system: HT29 colon
[5] = system: SW-620 colon
[6] = system: CCRF-CEM leukemia
[7] = system: MALME-3M melanoma
[8] = system: KM12 colon
[9] = system: UO-31 renal
[10] = system: 786-0 renal
[11] = system: RPMI-8226 leukemia
[12] = system: NCI/ADR-RES ovarian
[13] = system: K-562 leukemia
[14] = system: EKVX NSCLC
[15] = system: OVCAR-3 ovarian
[16] = system: DU-145 prostate
[17] = system: A549 NSCLC
[18] = system: NCI-H460 lung
[19] = system: TK-10 renal
[20] = system: HOP-62 NSCLC
[21] = system: SF-268 CNS
[22] = system: U251 CNS
[23] = system: ACHN renal
[24] = system: SN12C renal
[25] = system: M14 melanoma
[26] = system: BT-549 breast
[27] = system: SF-295 CNS
[28] = system: MOLT-4 leukemia
[29] = system: HCT-15 colon
[30] = system: A498 renal
[31] = system: OVCAR-8 ovarian
[32] = system: MDA-MB-435
[33] = system: SNB-19 CNS
[34] = system: SK-MEL-28 melanoma
[35] = system: HOP-92 NSCLC
[36] = system: T-47D breast
[37] = system: UACC-257 melanoma
[38] = system: NCI-H226 lung
[39] = system: MCF7 breast
[40] = system: NCI-H23 lung
[41] = system: PC-3 prostate
[42] = system: SF-539 CNS
[43] = system: OVCAR-5 ovarian
[44] = system: COLO 205 colon
[45] = system: HCT-116 colon
[46] = system: UACC-62 melanoma
[47] = system: CAKI-1 renal
[48] = system: SK-MEL-2 melanoma
[49] = system: SK-OV-3 ovarian
[50] = system: HS 578T breast
[51] = system: SK-MEL-5 melanoma
[52] = system: HCC-2998 colon
[53] = system: OVCAR-4 ovarian
[54] = system: NCI-H522 lung
[55] = system: LOX IMVI melanoma
[56] = system: SNB-75 CNS

For `O=S(=O)(N=S(c1ccccc1)c1ccccc1)c1ccccc1`, the TGI [1] was > 100 µM, the TGI [2] was > 100 µM and the TGI [3] was > 100 µM. The TGI [4] was > 100 µM, the TGI [5] was > 100 µM and the TGI [6] was > 100 µM. The TGI [7] was > 100 µM, the TGI [8] was > 100 µM and the TGI [9] was > 100 µM. For the same molecule, the TGI [10] was > 100 µM, the TGI [11] was > 100 µM and the TGI [12] was > 100 µM. The TGI [13] was > 100 µM, the TGI [14] was > 100 µM and the TGI [15] was > 100 µM. For the same molecule, the TGI [16] was > 100 µM, the TGI [17] was > 100 µM and the TGI [18] was > 100 µM. The TGI [19] was > 100 µM, the TGI [20] was > 100 µM and the TGI [21] was > 100 µM. The TGI [22] was > 100 µM, the TGI [23] was > 100 µM and the TGI [24] was > 100 µM. The TGI [25] was > 100 µM, the TGI [26] was > 100 µM and the TGI [27] was > 100 µM. The TGI [28] was > 100 µM, the TGI [29] was > 100 µM and the TGI [30] was > 100 µM. For the same molecule, the TGI [31] was > 100 µM, the TGI [32] was > 100 µM and the TGI [33] was > 100 µM. For the same molecule, the TGI [34] was > 100 µM, the TGI [35] was > 100 µM and the TGI [36] was > 100 µM. The TGI [37] was > 100 µM, the TGI [38] was > 100 µM and the TGI [39] was > 100 µM. For the same molecule, the TGI [40] was > 100 µM, the TGI [41] was > 100 µM and the TGI [42] was > 100 µM. The TGI [43] was > 100 µM, the TGI [44] was > 100 µM and the TGI [45] was > 100 µM.
In the case of `CC(C)(C)c1cc(C(C)(C)C)cc(S(=O)(=O)Nc2cc3ccccc3cc2C(=O)NCCN)c1`, the GI50 [1] is reported as 1.79 µM, the TGI [1] is reported as 3.18 µM and the GI50 [2] is reported as 1.9 µM. For the same molecule, the TGI [2] was 4.43 µM, the GI50 [3] was 2.04 µM and the TGI [3] was 4.22 µM. The GI50 [4] was 1.93 µM, the TGI [4] was 3.95 µM and the GI50 [5] was 1.93 µM. The TGI [5] was 3.95 µM, the GI50 [6] was 2.55 µM and the TGI [6] was 6.41 µM. The GI50 [7] was 1.54 µM, the TGI [7] was 3.13 µM and the GI50 [46] was 1.82 µM. For the same molecule, the TGI [46] was 3.4 µM, the GI50 [47] was 2.75 µM and the TGI [47] was 9.33 µM. It also gave a GI50 [48] of 1.92 µM, a TGI [48] of 3.87 µM and a GI50 [8] of 1.79 µM. For the same molecule, the TGI [8] was 3.37 µM, the GI50 [9] was 1.55 µM and the TGI [9] was 2.98 µM. It also gave a GI50 [49] of 2.04 µM, a TGI [49] of 4.51 µM and a GI50 [10] of 1.67 µM. The TGI [10] was 3.09 µM, the GI50 [50] was 2.17 µM and the TGI [50] was 4.89 µM. It also gave a GI50 [12] of 2.37 µM, a TGI [12] of 6.54 µM and a GI50 [13] of 2.16 µM. It also gave a TGI [13] of 4.85 µM, a GI50 [14] of 1.45 µM and a TGI [14] of 2.88 µM. The GI50 [15] was 1.75 µM, the TGI [15] was 3.21 µM and the GI50 [16] was 1.82 µM. For the same molecule, the TGI [16] was 3.47 µM, the GI50 [17] was 1.95 µM and the TGI [17] was 3.77 µM. It also gave a GI50 [51] of 1.75 µM, a TGI [51] of 3.13 µM and a GI50 [18] of 2.1 µM. For the same molecule, the TGI [18] was 4.12 µM, the GI50 [19] was 1.78 µM and the TGI [19] was 3.26 µM. It also gave a GI50 [20] of 1.57 µM, a TGI [20] of 3.01 µM and a GI50 [21] of 1.68 µM. It also gave a TGI [21] of 3.35 µM, a GI50 [52] of 1.75 µM and a TGI [52] of 3.24 µM. For the same molecule, the GI50 [22] was 1.75 µM, the TGI [22] was 3.15 µM and the GI50 [23] was 1.7 µM. For the same molecule, the TGI [23] was 3.18 µM, the GI50 [24] was 1.86 µM and the TGI [24] was 3.6 µM. It also gave a GI50 [25] of 1.71 µM, a TGI [25] of 3.42 µM and a GI50 [53] of 1.86 µM. The TGI [53] was 3.94 µM, the GI50 [26] was 1.67 µM and the TGI [26] was 3.09 µM. It also gave a GI50 [27] of 1.72 µM, a TGI [27] of 3.17 µM and a GI50 [54] of 1.8 µM. For the same molecule, the TGI [54] was 3.72 µM, the GI50 [28] was 2.32 µM and the TGI [28] was 5.77 µM. For the same molecule, the GI50 [55] was 1.6 µM, the TGI [55] was 3.02 µM and the GI50 [29] was 1.64 µM. It also gave a TGI [29] of 3.04 µM, a GI50 [30] of 1.77 µM and a TGI [30] of 3.3 µM. The GI50 [56] was 1.58 µM, the TGI [56] was 4.16 µM and the GI50 [31] was 2.2 µM. The TGI [31] was 4.87 µM, the GI50 [32] was 1.68 µM and the TGI [32] was 3.18 µM. The GI50 [33] was 1.89 µM, the TGI [33] was 3.52 µM and the GI50 [34] was 1.87 µM. The TGI [34] was 3.64 µM, the GI50 [35] was 1.73 µM and the TGI [35] was 3.24 µM. It also gave a GI50 [36] of 1.7 µM, a TGI [36] of 3.6 µM and a GI50 [37] of 2.09 µM. For the same molecule, the TGI [37] was 4.02 µM, the GI50 [38] was 2.16 µM and the TGI [38] was 4.28 µM. It also gave a GI50 [39] of 1.53 µM, a TGI [39] of 2.95 µM and a GI50 [40] of 1.76 µM. It also gave a TGI [40] of 3.53 µM, a GI50 [41] of 2.4 µM and a TGI [41] of 6.23 µM. For the same molecule, the GI50 [42] was 1.77 µM, the TGI [42] was 3.28 µM and the GI50 [43] was 1.94 µM. It also gave a TGI [43] of 4.49 µM, a GI50 [44] of 1.82 µM and a TGI [44] of 3.37 µM. It also gave a GI50 [45] of 1.75 µM and a TGI [45] of 3.22 µM.
`CCCOC(C)OCCC#CCC(C)OC(=O)CC(Cl)(Cl)Cl` (stereo not given) gave a GI50 [3] of 46.5 µg/mL, a GI50 [6] of 22.6 µg/mL and a GI50 [50] of 56.8 µg/mL. It also gave a GI50 [14] of 98.4 µg/mL and a GI50 [45] of 50.8 µg/mL.
